How the values were obtained:
[1] = Solubility of the raw material; assay type: physicochemical; settings: needs to be pre-dissolved at 80°C in propylene glycol
Propionibacterium acnes = settings: cited from earlier work; for antibacterial / antimicrobial activity against Propionibacterium Acnes: raw material description, PCA ethyl cocoyl arginate at a pH lower than 7

Compound	solubility [1]	antibacterial / antimicrobial activity against Propionibacterium Acnes (Propionibacterium acnes)	effectiveness as antibacterial against Propionibacterium acnes (Propionibacterium acnes; compared with other surfactants, US2008/0070986)
CCCCCCCCCCCC(=O)N[C@@H](CCCNC(=N)N)C(=O)O [Lauroyl arginine]	poorly soluble	–	–
PCA ethyl cocoyl arginate	–	antimicrobial activity	–
Laureth-7 citrate	–	known antibacterial properties	2 magnitude orders less effective
